Source: patent US20080058293A1, “Quinoline Derivates and Their Use in Therapy” (priority 2003, published 2008)
pIC50: −log10 of the molar value. Counter-ions that a name gives are not always drawn.

Test system: not given
Assay: not given
Settings: not given

Row | Structure (SMILES) | melting point
1 | Cc1ccc2c(C(=O)NC[C@H](C)c3ccccc3)c(Cl)ccc2n1 (as salt: hydrochloride) [Example 1, 6-Chloro-2-methyl-N-[(2R)-2-phenylpropyl]-5-quinolinecarboxamide, hydrochloride] | 190 to 192 °C
2 | O=C(NCCc1ccccc1F)c1c(Cl)ccc2nc(N3CCC(C(=O)O)CC3)ccc12 [Example 27, 1-[6-Chloro-5-[[[2-(2-fluorophenyl)ethyl]amino]carbonyl]-2-quinolinyl]-4-piperidinecarboxylic acid] | 270 to 272 °C
3 | O=C(NCCc1c(Cl)cccc1Cl)c1c(Cl)ccc2nc(N3CCC(C(=O)O)CC3)ccc12 [Example 23, 1-[6-Chloro-5-[[[2-(2,6-dichlorophenyl)ethyl]amino]carbonyl]-2-quinolinyl]-4-piperidinecarboxylic acid] | 262 to 264 °C
4 | C[C@H](CC(=O)Nc1c(Cl)ccc2nc(CCCNCCCO)ccc12)c1ccccc1 [Example 7, (βR)-N-[6-Chloro-2-[3-[(3-hydroxypropyl)amino]propyl]-5-quinolinyl]-β-methyl-benzenepropanamide] | 118 to 120 °C
5 | CNCCCN(C)c1ccc2c(NC(=O)C[C@@H](C)c3ccccc3)c(Cl)ccc2n1 (as salt: trifluoroacetate) [Example 3, (βR)-N-[6-Chloro-2-[methyl[3-(methylamino)propyl]amino]-5-quinolinyl]-β-methyl-benzenepropanamide, ditrifluoroacetate] | 159 to 162 °C
6 | Cc1ccc2c(C(=O)NCCc3ccccc3)c(Cl)ccc2n1 [Example 5, 6-Chloro-2-methyl-N-(2-phenylethyl)-5-quinolinecarboxamide] | 170 to 172 °C
7 | O=C(CCc1ccccc1)Nc1c(Cl)ccc2nc(N3CCNCC3)ccc12 [Example 17, N-[6-Chloro-2-(1-piperazinyl)-5-quinolinyl]-benzenepropanamide] | 231 to 234 °C
8 | O=C(CCc1ccccc1Cl)Nc1c(Cl)ccc2nc(N3CC[C@H](NCCO)C3)ccc12 [Example 19, 2-Chloro-N-[6-chloro-2-[(3S)-3-[(2-hydroxyethyl)amino]-1-pyrrolidinyl]-5-quinolinyl]-benzenepropanamide] | 180 to 182 °C
9 | Cc1ccc2c(C(=O)NC[C@@H](C)c3ccccc3)c(Cl)ccc2n1 (as salt: hydrochloride) [Example 2, 6-Chloro-2-methyl-N-[(2S)-2-phenylpropyl]-5-quinolinecarboxamide, hydrochloride] | 182 to 185 °C
10 | O=C(CCc1ccc(Cl)cc1Cl)Nc1c(Cl)ccc2nc(N3CCNCC3)ccc12 (as salt: hydrochloride) [Example 11, 2,4-Dichloro-N-[6-chloro-2-(1-piperazinyl)-5-quinolinyl]-benzenepropanamide, dihydrochloride] | 200 °C (dec.)
11 | O=C(CCc1ccccc1Cl)Nc1c(Cl)ccc2nc(N3CCNCC3)ccc12 (as salt: hydrochloride) [Example 10, 2-Chloro-N-[6-chloro-2-(1-piperazinyl)-5-quinolinyl]-benzenepropanamide, dihydrochloride] | 265 to 270 °C
12 | O=C(NCCc1ccccc1Cl)c1c(Cl)ccc2nc(N3CC[C@H](NCCO)C3)ccc12 [Example 22, 6-Chloro-N-[2-(2-chlorophenyl)ethyl]-2-[(3S)-3-[(2-hydroxyethyl)amino]-1-pyrrolidinyl]-5-quinolinecarboxamide] | 170 to 172 °C
13 | O=C(NCCc1ccccc1)c1c(Cl)ccc2nc(N3CCC(C(=O)O)CC3)ccc12 [Example 26, 1-[6-Chloro-5-[[(2-phenylethyl)amino]carbonyl]-2-quinolinyl]-4-piperidinecarboxylic acid] | 260 to 262 °C
14 | O=C(NCC(c1ccccc1)c1ccccc1)c1c(Cl)ccc2nc(N3CCC(C(=O)O)CC3)ccc12 (as salt: acetate) [Example 25, 1-[6-Chloro-5-[[(2,2-diphenylethyl)amino]carbonyl]-2-quinolinyl]-4-piperidinecarboxylic acid, acetate] | 180 to 185 °C
15 | O=C(CCc1ccc(Cl)cc1)Nc1c(Cl)ccc2nc(N3CCNCC3)ccc12 (as salt: hydrochloride) [Example 12, 4-Chloro-N-[6-chloro-2-(1-piperazinyl)-5-quinolinyl]-benzenepropanamide, dihydrochloride] | 183 to 188 °C
16 | O=C(NCCc1ccc(Cl)cc1)c1c(Cl)ccc2nc(N3CCC(C(=O)O)CC3)ccc12 [Example 31, 1-[6-Chloro-5-[[[2-(4-chlorophenyl)ethyl]amino]carbonyl]-2-quinolinyl]-4-piperidinecarboxylic acid] | 231 to 234 °C
17 | C[C@H](CC(=O)Nc1c(Cl)ccc2nc(N3CC[C@H](NCCCO)C3)ccc12)c1ccccc1 [Example 15, (βR)-N-[6-Chloro-2-[(3S)-3-[(3-hydroxypropyl)amino]-1-pyrrolidinyl]-5-quinolinyl]-β-methyl-benzenepropanamide] | 155 to 158 °C
18 | C[C@H](CC(=O)Nc1c(Cl)ccc2nc(N3CCNCC3)ccc12)c1ccccc1 [Example 4, (βR)-N-[6-Chloro-2-(1-piperazinyl)-5-quinolinyl]-β-methyl-benzenepropanamide] | 194 to 196 °C
19 | C[C@H](CNC(=O)c1c(Cl)ccc2nc(N3CCC(C(=O)O)CC3)ccc12)c1ccccc1 [Example 29, 1-[6-Chloro-5-[[[(2S)-2-phenylpropyl]amino]carbonyl]-2-quinolinyl]-4-piperidinecarboxylic acid] | 150 to 153 °C
20 | C[C@H](CC(=O)Nc1c(Cl)ccc2nc(N3CC[C@H](NCCO)C3)ccc12)c1ccccc1 (as salt: hydrochloride) [Example 16, (βR)-N-[6-Chloro-2-[(3S)-3-[(2-hydroxyethyl)amino]-1-pyrrolidinyl]-5-quinolinyl]-β-methyl-benzenepropanamide, dihydrochloride] | 177 to 182 °C
21 | N[C@H]1CCN(c2ccc3c(NC(=O)CCc4ccccc4Cl)c(Cl)ccc3n2)C1 [Example 18, N-[2-[(3S)-3-Amino-1-pyrrolidinyl]-6-chloro-5-quinolinyl]-2-chlorobenzenepropanamide] | 200 to 212 °C
22 | C[C@H](CC(=O)Nc1c(Cl)ccc2nc(N3CC[C@H](N)C3)ccc12)c1ccccc1 [Example 13, (βR)-N-[2-[(3S)-3-Amino-1-pyrrolidinyl]-6-chloro-5-quinolinyl]-β-methyl-benzenepropanamide] | 204 to 207 °C
23 | C[C@H](CC(=O)Nc1c(Cl)ccc2nc(NCCNCCO)ccc12)c1ccccc1 (as salt: hydrochloride) [Example 9, (βR)-N-[6-Chloro-2-[[2-[(2-hydroxyethyl)amino]ethyl]amino]-5-quinolinyl]-β-methyl-benzenepropanamide, dihydrochloride] | 178 to 182 °C
24 | N[C@H]1CCN(c2ccc3c(C(=O)NCCc4ccccc4Cl)c(Cl)ccc3n2)C1 [Example 21, 2-[(3S)-3-Amino-1-pyrrolidinyl]-6-chloro-N-[2-(2-chlorophenyl)ethyl]-5-quinolinecarboxamide] | 196 to 198 °C
25 | Cc1ccccc1CCNC(=O)c1c(Cl)ccc2nc(N3CCC(C(=O)O)CC3)ccc12 [Example 28, 1-[6-Chloro-5-[[[2-(2-methylphenyl)ethyl]amino]carbonyl]-2-quinolinyl]-4-piperidinecarboxylic acid] | 237 to 241 °C
26 | CC(Cc1ccc(Cl)c(Cl)c1)C(=O)Nc1cccc2ncccc12 (stereo not drawn) [Example 8, 3,4-Dichloro-α-methyl-N-5-quinolinyl-benzenepropanamide] | 168 to 170 °C
27 | O=C(NCCc1ccccc1Cl)c1c(Cl)ccc2nc(N3CCC(C(=O)O)CC3)ccc12 [Example 24, 1-[6-Chloro-5-[[[2-(2-chlorophenyl)ethyl]amino]carbonyl]-2-quinolinyl]-4-piperidinecarboxylic acid] | 250 to 253 °C

Target: T1, P2X7 receptor (Homo sapiens, UniProt Q99572)
T1 construct: 200 μl of a suspension of THP-1 cells; endogenous in cells; host or cells: THP-1 cells
T1 sequence (Q99572 1-595): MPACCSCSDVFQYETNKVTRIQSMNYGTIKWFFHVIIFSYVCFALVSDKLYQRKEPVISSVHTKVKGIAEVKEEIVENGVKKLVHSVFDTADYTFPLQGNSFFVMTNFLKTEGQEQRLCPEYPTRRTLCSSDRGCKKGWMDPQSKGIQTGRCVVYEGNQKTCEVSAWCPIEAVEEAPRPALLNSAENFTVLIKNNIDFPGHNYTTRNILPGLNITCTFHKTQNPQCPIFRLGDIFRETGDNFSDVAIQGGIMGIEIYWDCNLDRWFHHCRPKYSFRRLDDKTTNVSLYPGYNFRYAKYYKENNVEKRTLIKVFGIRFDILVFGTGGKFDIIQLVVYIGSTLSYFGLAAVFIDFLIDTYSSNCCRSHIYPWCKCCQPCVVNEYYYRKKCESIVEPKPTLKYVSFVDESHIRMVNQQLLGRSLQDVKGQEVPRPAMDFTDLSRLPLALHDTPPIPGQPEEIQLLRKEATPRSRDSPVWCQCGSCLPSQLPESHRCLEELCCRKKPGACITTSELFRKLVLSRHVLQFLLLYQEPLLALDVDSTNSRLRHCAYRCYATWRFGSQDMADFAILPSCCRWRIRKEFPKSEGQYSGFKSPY
Assay: bbATP-induced ethidium bromide fluorescence in THP-1 cells, P2X7 receptor antagonist activity
Format: cell-based
Settings: negative logarithm of concentration reducing bbATP agonist activity by 50%, 10^-5M bbATP, 37° C. one hour
Text: Certain compounds such as benzoylbenzoyl adenosine triphosphate (bbATP) are known to be agonists of the P2X7 receptor, effecting the formation of pores in the plasma membrane (Drug Development Research (1996), 37(3), p. 126). Consequently, when the receptor is activated using bbATP in the presence of ethidium bromide (a fluorescent DNA probe), an increase in the fluorescence of intracellular DNA-bound ethidium bromide is observed. The increase in fluorescence can be used as a measure of P2X7 receptor activation and therefore to quantify the effect of a compound on the P2X7 receptor.
In this manner, each of the title compounds of the Examples was tested for antagonist activity at the P2X7 receptor. Thus, the test was performed in 96-well flat bottomed microtitre plates, the wells being filled with 250 μl of test solution comprising 200 μl of a suspension of THP-1 cells (2.5×10^6 cells/ml) containing 10^−4M ethidium bromide, 25 μl of a high potassium buffer solution containing 10^−5M bbATP, and 25 μl of the high potassium buffer solution containing 3×10^−5M test compound. The plate was covered with a plastics sheet and incubated at 37° C. for one hour. The plate was then read in a Perkin-Elmer fluorescent plate reader, excitation 520 nm, emission 595 nm, slit widths: Ex 15 nm, Em 20 nm. For the purposes of comparison, bbATP (a P2X7 receptor agonist) and pyridoxal 5-phosphate (a P2X7 receptor antagonist) were used separately in the test as controls.

Row | Structure (SMILES) | pIC50
28 | Cc1ccc2c(C(=O)NC[C@H](C)c3ccccc3)c(Cl)ccc2n1 [Example 1, 6-Chloro-2-methyl-N-[(2R)-2-phenylpropyl]-5-quinolinecarboxamide, hydrochloride] | 6.50
